For orientation: pEC50 means the negative decadic logarithm of the EC50, by convention in mol/L. Broadly, the CC50 is the concentration giving 50% cytotoxicity.

Results on one compound are retold here after ChEMBL document CHEMBL4831514, “Novel betulin dicarboxylic acid ester derivatives as potent antiviral agents: Design, synthesis, biological evaluation, structure-activity relationship and in-silico study” (Eur J Med Chem, 2021).

Series [1] is described as follows: Selectivity index, ratio of CC50 for cytotoxicity against human A549 cells to EC50 for antiviral activity against Enterovirus E LCR-4 infected in A549 cells assessed as reduction in virus titer treated 1 hr post viral infection followed by replacement with fresh medium with compounds and measured after 72 hrs by MTT assay. In kind it is toxicity, cell-based. The conditions noted are these: read-out: Selectivity Index. (In general: Tetrazolium dyes change colour on reduction, which living cells bring about.)

In series [2] the test system is Enterovirus E. Put plainly: Potency index, ratio of ribavirin EC50 to test compound EC50 for antiviral activity against Enterovirus E LCR-4 infected in A549 cells assessed as reduction in virus titer treated 1 hr post viral infection followed by replacement with fresh medium with compounds and measured after 72 hrs by MTT assay. In kind it is functional.
Series [3] concerns Vesicular stomatitis virus. Put plainly: Antiviral activity against Vesicular stomatitis virus Indiana infected in A549 cells assessed as reduction in virus titer preincubated for 24 hrs followed by viral infection and measured after 72 hrs by microscopic analysis. In kind it is functional, organism-based.
The subject of series [4] is Human adenovirus 5. Put plainly: Antiviral activity against Human adenovirus 5 Adenoid 75 infected in A549 cells assessed as reduction in virus titer preincubated for 24 hrs followed by viral infection and measured after 72 hrs by microscopic analysis. In kind it is functional, organism-based.
For series [5], the system named is Enterovirus E. Put plainly: Antiviral activity against Enterovirus E LCR-4 infected in A549 cells assessed as inhibition of viral adsorption at early stage of replication treated for 1 hr during viral infection followed by replacement with fresh medium and measured after 72 hrs by MTT assay. In kind it is functional, organism-based.
The subject of series [6] is Human alphaherpesvirus 1. Put plainly: Antiviral activity against Human herpesvirus 1 MacIntyre infected in A549 cells assessed as reduction in virus titer preincubated for 24 hrs followed by viral infection and measured after 72 hrs by microscopic analysis. In kind it is functional, organism-based.
The test system of series [7] is Enterovirus E. The experiment in a line: Antiviral activity against Enterovirus E LCR-4 infected in A549 cells assessed as reduction in virus titer treated 1 hr post viral infection followed by replacement with fresh medium with compounds and measured after 72 hrs by MTT assay. In kind it is functional, organism-based. The conditions noted are these: LCR-4, A549.

In another series the test system is A549. The experiment in a line: (§1) Cytotoxicity against human A549 cells assessed as reduction in cell viability incubated for 48 hrs by MTT assay. Particulars: a549, 48 h. In kind it is cell-based.
The nature of series [8]: as §1. Format: cell-based. Particulars: A549 cells.
Series [9] deals with Human alphaherpesvirus 1. The experiment in a line: Antiviral activity against Human herpesvirus-1 MacIntyre infected in A549 cells assessed as inhibition of viral adsorption at early stage of replication treated for 1 hr during viral infection followed by replacement with fresh medium and measured after 48 hrs by MTT assay. In kind it is functional, organism-based.
Series [10] deals with Human adenovirus 5. The experiment in a line: Antiviral activity against Human adenovirus 5 Adenoid 75 infected in A549 cells assessed as inhibition of viral adsorption at early stage of replication treated for 1 hr during viral infection followed by replacement with fresh medium and measured after 72 hrs by MTT assay. Format: functional, organism-based.
For the next series, the system named is MDCK. The experiment in a line: Cytotoxicity against MDCK cells assessed as reduction in cell viability incubated for 72 hrs by MTT assay. Format: cell-based, Canis lupus familiaris. The conditions noted are these: dog, mdck, 72 h.

pEC50: −log10 of the molar value. Activity calls are given as the source filed them. The calls are words filed in the database; no cut-off is given here.

On to `C=C(C)[C@@H]1CC[C@]2(COC(=O)/C=C(\C)C(=O)N3CCOCC3)CC[C@]3(C)[C@H](CC[C@@H]4[C@@]5(C)CC[C@H](O)C(C)(C)[C@@H]5CC[C@]43C)[C@@H]12`, for which the selectivity ratio at 72 h in series [1] worked out at 3. Also, in the series on Enterovirus E [2], the “Ratio EC50” value is given as 3. Further, the result (in series [3]; with Human adenovirus 5 [4]; in the series with Enterovirus E [5]; in the series with Human alphaherpesvirus 1 [6]; in the series on Human alphaherpesvirus 1 [9]; with Human adenovirus 5 [10]) was inactive. In addition, the pEC50 with Enterovirus E [7] was 4.42. The CC20 in the series on A549 and with MDCK was 37.82 µM each time. For the same compound, the CC50 at 48 h in [8] is 114 µM.
